What was measured:
[1] = molecular target: T1, MAO-B (Rattus norvegicus, UniProt P19643); test: Inhibition of MAO activity in vitro, PEA as substrate; assay type: biochemical; design: The MAO enzyme source was a homogenate of rat brain in 0.3M sucrose; from tissue; host or cells: rat brain homogenate, 600 g supernatant; settings: MAO-B Inhibition In vitro IC50, rat brain homogenate
T1 sequence (P19643 1-520): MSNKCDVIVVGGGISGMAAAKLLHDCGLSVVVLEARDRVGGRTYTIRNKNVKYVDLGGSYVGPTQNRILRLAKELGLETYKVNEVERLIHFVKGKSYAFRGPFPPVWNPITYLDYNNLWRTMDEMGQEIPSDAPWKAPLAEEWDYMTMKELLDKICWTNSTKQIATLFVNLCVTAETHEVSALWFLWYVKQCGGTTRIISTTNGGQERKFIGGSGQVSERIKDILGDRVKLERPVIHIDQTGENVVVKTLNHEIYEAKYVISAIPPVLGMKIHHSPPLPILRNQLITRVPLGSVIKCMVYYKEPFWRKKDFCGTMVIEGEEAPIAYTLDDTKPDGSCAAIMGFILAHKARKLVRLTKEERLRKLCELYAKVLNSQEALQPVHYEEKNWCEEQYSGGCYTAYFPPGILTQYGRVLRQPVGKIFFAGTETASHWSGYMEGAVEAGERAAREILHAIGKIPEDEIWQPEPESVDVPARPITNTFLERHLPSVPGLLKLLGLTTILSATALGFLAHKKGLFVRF
Protocol: (§1) Substrate concentrations used were 50 μM (PEA) and 1 mM (5-HT).

[2] = molecular target: T2, MAO-A (Rattus norvegicus, UniProt P21396); test: Inhibition of MAO activity in vitro, 5-HT as substrate; assay type: biochemical; design: The MAO enzyme source was a homogenate of rat brain in 0.3M sucrose; from tissue; host or cells: rat brain homogenate, 600 g supernatant; settings: MAO-A Inhibition In vitro IC50, rat brain homogenate, 5-HT substrate
T2 sequence (P21396 1-526): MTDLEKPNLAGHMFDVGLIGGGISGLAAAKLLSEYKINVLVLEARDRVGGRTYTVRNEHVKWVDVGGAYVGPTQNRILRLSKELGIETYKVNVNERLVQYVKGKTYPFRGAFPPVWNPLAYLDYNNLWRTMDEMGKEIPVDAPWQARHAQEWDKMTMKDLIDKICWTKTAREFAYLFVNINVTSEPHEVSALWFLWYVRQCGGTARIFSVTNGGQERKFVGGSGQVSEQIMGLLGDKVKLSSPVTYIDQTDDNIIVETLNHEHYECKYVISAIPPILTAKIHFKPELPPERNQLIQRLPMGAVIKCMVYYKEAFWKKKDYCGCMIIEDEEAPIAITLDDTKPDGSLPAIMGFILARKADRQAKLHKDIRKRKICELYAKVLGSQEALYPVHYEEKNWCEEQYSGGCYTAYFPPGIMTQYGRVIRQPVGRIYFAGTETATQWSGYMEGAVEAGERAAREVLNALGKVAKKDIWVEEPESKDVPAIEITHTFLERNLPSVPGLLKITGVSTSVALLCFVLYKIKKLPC
Protocol: as §1

[3] = molecular target: T3, MAO-B (Mus musculus, UniProt Q8BW75); test: Inhibition of MAO activity ex vivo (brain); assay type: in vivo, mice; settings: mice, brain tissue
T3 construct: from tissue; host or cells: mouse brain
T3 sequence (Q8BW75 1-520): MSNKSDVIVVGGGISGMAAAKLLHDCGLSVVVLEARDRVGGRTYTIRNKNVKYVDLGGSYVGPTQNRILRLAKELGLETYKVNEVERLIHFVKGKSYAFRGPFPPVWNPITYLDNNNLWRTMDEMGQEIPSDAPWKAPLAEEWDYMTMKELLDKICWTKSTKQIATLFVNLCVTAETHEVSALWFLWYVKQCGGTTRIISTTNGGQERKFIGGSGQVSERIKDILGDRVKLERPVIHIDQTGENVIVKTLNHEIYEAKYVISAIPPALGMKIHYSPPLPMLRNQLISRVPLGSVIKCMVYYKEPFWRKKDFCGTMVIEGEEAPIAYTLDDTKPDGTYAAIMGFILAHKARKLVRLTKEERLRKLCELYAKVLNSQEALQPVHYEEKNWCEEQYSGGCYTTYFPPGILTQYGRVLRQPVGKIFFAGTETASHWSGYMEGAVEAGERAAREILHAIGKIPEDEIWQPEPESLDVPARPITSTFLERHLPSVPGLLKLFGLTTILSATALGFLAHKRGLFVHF
Protocol: as §1
(§2) Male Sabra mice, weighing 45-50 g were injected with test compound solutions (prepared in 0.9% saline). Each dose was administered to two or three mice. The mice were sacrificed two hours after drug administration or at a time corresponding to the peak AChE inhibition time (see Table 11). The brain and liver were rapidly dissected and stored in appropriate vials on ice. The tissues were weighed, diluted to ½ in sucrose 0.3M and stored at −20° C. before performance of the MAO assay described above. The results given in Table 11 relate to measurements made on brain tissue only.

[4] = molecular target: T4, MAO-A (Mus musculus, UniProt Q64133); test: Inhibition of MAO activity ex vivo (brain); assay type: in vivo, mice; settings: mice, brain tissue
T4 construct: from tissue; host or cells: mouse brain
T4 sequence (Q64133 1-526): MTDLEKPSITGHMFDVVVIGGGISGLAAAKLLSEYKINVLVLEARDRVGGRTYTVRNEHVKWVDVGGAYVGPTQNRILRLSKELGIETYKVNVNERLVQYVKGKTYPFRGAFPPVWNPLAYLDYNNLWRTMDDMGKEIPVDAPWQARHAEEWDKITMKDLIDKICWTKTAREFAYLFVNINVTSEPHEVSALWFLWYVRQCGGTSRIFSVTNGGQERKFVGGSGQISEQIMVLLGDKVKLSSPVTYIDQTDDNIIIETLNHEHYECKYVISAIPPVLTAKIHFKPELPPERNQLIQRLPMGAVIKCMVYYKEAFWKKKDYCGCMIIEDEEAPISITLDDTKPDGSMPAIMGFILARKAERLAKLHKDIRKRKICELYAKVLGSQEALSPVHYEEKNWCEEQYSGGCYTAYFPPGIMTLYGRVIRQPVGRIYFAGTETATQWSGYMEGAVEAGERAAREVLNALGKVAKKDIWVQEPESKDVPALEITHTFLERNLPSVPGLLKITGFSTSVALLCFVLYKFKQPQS
Protocol: as §1, §2

[5] = system: mice; settings: mouse, in vivo
Protocol: Therapeutic Ratio was calculated as LD50 divided by ED50 of ex vivo acetylcholine esterase inhibition.

[6] = molecular target: T5, whole brain AChE (Mus musculus, UniProt P21836); settings: for AChE Inhibition Ex vivo ED50 (AC): mice, whole brain, at peak of activity
T5 sequence (P21836 32-614): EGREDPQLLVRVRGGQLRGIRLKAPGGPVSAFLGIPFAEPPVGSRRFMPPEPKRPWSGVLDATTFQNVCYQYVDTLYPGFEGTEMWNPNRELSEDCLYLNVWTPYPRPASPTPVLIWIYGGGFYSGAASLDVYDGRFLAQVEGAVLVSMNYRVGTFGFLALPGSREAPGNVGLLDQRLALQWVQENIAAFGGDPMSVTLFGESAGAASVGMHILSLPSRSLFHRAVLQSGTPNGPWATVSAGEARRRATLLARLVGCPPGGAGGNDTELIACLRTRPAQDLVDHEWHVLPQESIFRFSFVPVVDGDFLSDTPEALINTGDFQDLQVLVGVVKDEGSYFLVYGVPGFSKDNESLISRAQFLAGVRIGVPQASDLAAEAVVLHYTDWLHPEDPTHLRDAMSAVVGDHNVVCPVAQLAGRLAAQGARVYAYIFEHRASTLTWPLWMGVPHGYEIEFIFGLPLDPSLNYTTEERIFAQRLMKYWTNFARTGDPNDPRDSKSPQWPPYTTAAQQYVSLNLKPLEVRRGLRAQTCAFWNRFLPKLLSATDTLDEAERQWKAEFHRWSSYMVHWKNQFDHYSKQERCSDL

[7] = molecular target: T6, Human erythrocyte acetylcholinesterase (Homo sapiens, UniProt P22303); test: biochemical; assay type: biochemical; settings: AChE Inhibition In vitro IC50
T6 construct: Human erythrocyte acetylcholinesterase (type XIII, Sigma Israel); purchased Sigma Israel type XIII; host or cells: human erythrocytes
T6 sequence (P22303 32-617 isoform P22303-2 limits assumed): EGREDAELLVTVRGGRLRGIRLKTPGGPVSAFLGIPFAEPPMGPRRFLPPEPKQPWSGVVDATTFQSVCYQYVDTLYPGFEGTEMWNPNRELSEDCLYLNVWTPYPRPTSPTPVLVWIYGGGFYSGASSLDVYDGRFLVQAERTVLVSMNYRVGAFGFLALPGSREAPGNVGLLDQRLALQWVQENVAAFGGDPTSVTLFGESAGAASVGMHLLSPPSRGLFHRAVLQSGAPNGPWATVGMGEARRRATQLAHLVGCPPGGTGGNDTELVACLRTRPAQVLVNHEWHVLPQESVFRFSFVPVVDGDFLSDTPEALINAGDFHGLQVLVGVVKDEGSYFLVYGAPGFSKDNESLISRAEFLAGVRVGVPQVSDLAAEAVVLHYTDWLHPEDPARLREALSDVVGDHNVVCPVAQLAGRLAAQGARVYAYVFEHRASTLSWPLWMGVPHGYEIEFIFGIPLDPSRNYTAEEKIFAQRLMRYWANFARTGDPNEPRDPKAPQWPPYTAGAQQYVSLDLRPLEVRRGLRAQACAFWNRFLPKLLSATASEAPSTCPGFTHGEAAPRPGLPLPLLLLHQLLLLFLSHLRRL
Protocol: Human erythrocyte acetylcholinesterase (type XIII, Sigma Israel), was prepared in a stock solution of 1 U/ml, containing Triton (1%) and bovine serum albumin (0.05%) in phosphate buffer (pH 8). The enzyme (0.05U) was incubated with 3-5 different concentrations of test compound (in triplicate) for periods of from 15 to 60 minutes at 37° C. […] The percentage inhibition of AChE by each concentration of drug is calculated by comparison with that of enzyme in the absence of drug.

Row | Structure (SMILES) | IC50 [1] [µM] | IC50 [2] [µM] | MAO-B Inhibition Ex vivo ED50 [3] [µmol/kg] | MAO-A Inhibition Ex vivo ED50 [4] | Acute Toxicity LD50 (LD) [5] [µmol/kg] | Therapeutic Ratio LD/AC [5] | AChE Inhibition Ex vivo ED50 (AC) [6] [µmol/kg] | AChE Inhibition Time to peak activity t ([6]; mouse, in vivo) [min] | IC50 [7] [µM]
1 | C#CCNC1CCc2ccc(OC(=O)N(C)CCC)cc21 (stereo not shown) [Compound 26] | 264 | 114 | 333 | >>440 μmoles/kg | 1200 | 9 | 120 | 30 to 60 | 17
2 | C#CCNC1CCc2ccc(OC(=O)N(C)CCCCCC)cc21 (stereo not shown) [Compound 36] | > 1000 | > 1000 | >100 | >100 µmol/kg | >1000 |  | >400 |  | 15

Reference: patent USRE39616E1, “Aminoindan derivatives” (priority 1996, dated 2007)
